PubChem BioAssay (NCI)
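Assay format: 96-well plates, 48-hour exposure. GI50: concentration for 50% inhibition of growth. Definition used: TGI = concentration required for complete inhibition of growth.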

Key:
Test in all cases: growth of human tumour cells (NCI), 48 h
[1] = test system: UACC-62 melanoma
[2] = test system: NCI-H522 lung
[3] = test system: DU-145 prostate
[4] = test system: K-562 leukemia
[5] = test system: SNB-75 CNS
[6] = test system: COLO 205 colon
[7] = test system: HS 578T breast
[8] = test system: MCF7 breast
[9] = test system: RPMI-8226 leukemia
[10] = test system: A498 renal
[11] = test system: MOLT-4 leukemia
[12] = test system: BT-549 breast
[13] = test system: RXF 393 renal
[14] = test system: OVCAR-8 ovarian
[15] = test system: TK-10 renal
[16] = test system: SK-OV-3 ovarian
[17] = test system: SF-295 CNS
[18] = test system: SK-MEL-5 melanoma
[19] = test system: IGROV1 ovarian
[20] = test system: MDA-MB-231 breast
[21] = test system: HT29 colon
[22] = test system: SR leukemia
[23] = test system: LOX IMVI melanoma
[24] = test system: KM12 colon
[25] = test system: NCI-H460 lung
[26] = test system: U251 CNS
[27] = test system: HCT-116 colon
[28] = test system: SF-539 CNS
[29] = test system: M14 melanoma
[30] = test system: CAKI-1 renal

## O=C(Nc1ccc(Cl)c(C(F)(F)F)c1)N1CCN(c2cc(-c3cn(-c4ccccc4)nc3-c3cccc(O)c3)ccn2)CC1
[1]
  TGI: 5.77 µM
[2]
  GI50: 2.77 µM
  TGI: 9.26 µM
[3]
  GI50: 7.15 µM
  TGI: > 22 µM
[4]
  GI50: 2.13 µM
  TGI: > 22 µM
[5]
  GI50: 0.634 µM
  TGI: 11.1 µM
[6]
  GI50: 3.01 µM
  TGI: 9.39 µM
[7]
  GI50: 3.39 µM
  TGI: 15.8 µM
[8]
  GI50: 1.8 µM
  TGI: 10.1 µM
[9]
  GI50: 1.21 µM
  TGI: 11.8 µM
[10]
  GI50: 4.72 µM
  TGI: 21 µM
[11]
  GI50: 0.93 µM
  TGI: 7.58 µM
[12]
  GI50: 3.33 µM
  TGI: 7.99 µM
[13]
  GI50: 2.42 µM
  TGI: 9.79 µM
[14]
  GI50: 4.72 µM
  TGI: > 22 µM
[15]
  GI50: 5.92 µM
  TGI: > 22 µM
[16]
  GI50: 6.43 µM
  TGI: > 22 µM
[17]
  GI50: 1.5 µM
  TGI: 7.25 µM
[18]
  GI50: 2.58 µM
  TGI: 5.45 µM
[19]
  GI50: 5.11 µM
  TGI: > 22 µM
[20]
  GI50: 3.07 µM
  TGI: 7.57 µM
[21]
  GI50: 4.1 µM
  TGI: > 22 µM
[22]
  GI50: 3.07 µM
  TGI: > 22 µM
[23]
  GI50: 2.99 µM
  TGI: 6.52 µM
[24]
  GI50: 3.34 µM
  TGI: 15.2 µM
[25]
  GI50: 2.47 µM
  TGI: > 22 µM
[26]
  GI50: 4.23 µM
  TGI: > 22 µM
[27]
  GI50: 1.86 µM
  TGI: > 22 µM
[28]
  GI50: 4.21 µM
  TGI: > 22 µM
[29]
  GI50: 3.03 µM
  TGI: 12.5 µM
[30]
  GI50: 4.18 µM
  TGI: 19.4 µM
